From patent US6537948B1, “Uracil compounds and use thereof” (Sumitomo Chemical Company, Limited, priority 2000, dated 2003)

What was measured:
[1] = tested on: barnyardgrass (Echinochloa crus-galli); experiment: Test Example 6: foliar spray, herbicidal activity index; assay type: in vivo; design: key: “0” means that there was no or little difference in the degree of germination or growth between the treated and the untreated tested plants at the time of examination; “10” means that the test plants died complete or their germination or growth was completely inhibited; details: 4 days after application, index 0-10
Description: (§1) A plastic pot having longer side of 27 cm, shorter side of 19 cm and depth of 7 cm was filled with soil and then seeded with large crabgrass (Digitaria sanguinalis) and giant foxtail (Setaria faberi). Nine days after, barnyardgrass (Echinochloa crus-galli) was seeded therein and grown for 15 days in a greenhouse. Further, a plastic pot having longer side of 16.5 cm, shorter side of 12 cm and depth of 7 cm was filled with soil and then seeded with wild oat (Avena fatua), and grown for 18 days in a greenhouse. Then, each of the present compound 1-67 and A was formulated into an emulsifiable concentrate according to Formulation Example 2 and then diluted to the prescribed amount with water containing a spreading agent and the dilution was uniformly sprayed over the foliage of the test plants with a sprayer at a rate of 1000liters per hectare. After the application, the test plants were grown in the greenhouse for 4 days, and the herbicidal activity was examined. (In the Table 12, the test plants are shown as follows.
(§2) Barnyardgrass: B, Large crabgrass: LC, Giant foxtail: GF, Wild oat: W

[2] = tested on: giant foxtail (Setaria faberi); experiment: as above; assay type: in vivo; design: key: “0” means that there was no or little difference in the degree of germination or growth between the treated and the untreated tested plants at the time of examination; “10” means that the test plants died complete or their germination or growth was completely inhibited; details: 4 days after application, index 0-10
Description: as §1, §2

[3] = tested on: large crabgrass (Digitaria sanguinalis); experiment: as above; assay type: in vivo; details: 4 days after application, index 0-10
Description: as §1, §2

wild oat (Avena fatua) = experiment: as above; assay type: in vivo; details: 4 days after application, index 0-10
Description: as §1, §2

[4] = tested on: velvetleaf (Abutilon theophrasti); experiment: Test Example 1: foliar treatment of field; assay type: in vivo; details: foliar spray, dosage 125 g/ha, 16 days after application
Description: (§3) A cylindrical plastic pot having a diameter of 10 cm and a depth of 10 cm was filled with soil and then seeded with ivyleaf morningglory (Ipomoea hederacea) and velvetleaf (Abutilon theophrasti). These test plants were grown in a greenhouse for 10 days. Then, each of compounds 1-2, 1-42, 1-45, 1-48, 2-2, 2-7, 2-42, 2-45, 3-2, 3-12, 4-7, 4-85, 5-12-R, 5-12-S, 5-17, 6-2, 7-2, 7-6, 7-8, 7-12, 7-48, 7-50, 7-84, 7-118, 7-119, 7-125, 9-7, 9-27 and 9-45 was formulated into an emulsifiable concentrate according to Formulation Example 2 and then diluted to the prescribed amount with water containing a spreading agent and the dilution was uniformly sprayed over the foliage of the test plants with a sprayer at a rate of 1000 liters per hectare. After the application, the test plants were grown in the greenhouse for 16 days, and the herbicidal activity was determined.

[5] = tested on: ivyleaf morningglory (Ipomoea hederacea); experiment: Test Example 1: foliar treatment of field; assay type: in vivo; details: foliar spray, dosage 125 g/ha, 16 days after application
Description: as §3

[6] = tested on: velvetleaf (Abutilon theophrasti); experiment: Test Example 2: soil surface treatment of field; assay type: in vivo; details: soil surface spray, dosage 500 g/ha, 19 days after application
Description: (§4) A cylindrical plastic pot having a diameter of 10 cm and a depth of 10 cm was filled with soil and then seeded with ivyleaf morningglory (Ipomoea hederacea) and velvetleaf (Abutilon theophrasti). Then, each of the compounds 1-2, 1-42, 1-48, 2-2, 2-7, 2-42, 2-45, 3-2, 3-12, 4-7, 4-85, 5-12-R, 5-12-S, 5-17, 6-2, 7-2, 7-6, 7-8, 7-12, 7-48, 7-50, 7-84, 7-118, 7-119, 7-125, 9-7, 9-27 and 9-45 was formulated into an emulsifiable concentrate according to Formulation Example 2 and then diluted to the prescribed amount with water, and the dilution was uniformly sprayed over the surface of the soil with a sprayer at a rate of 1000 liters per hectare. After the application, the test plants were grown in the greenhouse for 19 days, and the herbicidal activity was examined.

[7] = tested on: ivyleaf morningglory (Ipomoea hederacea); experiment: Test Example 2: soil surface treatment of field; assay type: in vivo; details: soil surface spray, dosage 500 g/ha, 19 days after application
Description: as §4

| melting point [°C] | Compound | Herbicidal activity B ([1]; dosage 32 g/ha) | Herbicidal activity B ([1]; dosage 125 g/ha) | Herbicidal activity GF ([2]; dosage 32 g/ha) | Herbicidal activity GF ([2]; dosage 125 g/ha) | Herbicidal activity LC ([3]; dosage 32 g/ha) | Herbicidal activity LC ([3]; dosage 125 g/ha) | Herbicidal activity W (wild oat (Avena fatua); dosage 32 g/ha) | Herbicidal activity W (wild oat (Avena fatua); dosage 125 g/ha) | growth of velvetleaf (herbicidal activity) [4] | growth of ivyleaf morningglory (herbicidal activity) [5] | growth of velvetleaf (herbicidal activity) [6] | growth of ivyleaf morningglory (herbicidal activity) [7] |
| --- | --- | --- | --- | --- | --- | --- | --- | --- | --- | --- | --- | --- | --- |
|  | COc1cc(OC)nc(Nc2cc(-n3c(=O)cc(C(F)(F)F)n(C)c3=O)c(F)cc2Cl)n1 [A, reference compound] | 4 | 4 | 4 | 5 | 6 | 8 | 2 | 3 |  |  |  |  |
| 71.2 | COC(=O)C(C)Oc1cc(OC)nc(Oc2cc(-n3c(=O)cc(C(F)(F)F)n(C)c3=O)c(F)cc2Cl)n1 (centres unmarked) [Compound 1-42, 2-{2-chloro-4-fluoro-5-[3-methyl-2,6-dioxo-4-(trifluoromethyl)-1,2,3,6-tetrahydropyrimidin-1-yl]phenoxy}-6-methoxy-4-{1-(methoxycarbonyl)ethoxy}pyrimidine] |  |  |  |  |  |  |  |  | completely controlled | completely controlled | completely controlled | completely controlled |
|  | COC(=O)COc1cc(OC)nc(Nc2cc(-n3c(=O)cc(C(F)(F)F)n(C)c3=O)c(F)cc2Cl)n1 [Compound 1-67, 2-{2-chloro-4-fluoro-5-[3-methyl-2,6-dioxo-4-(trifluoromethyl)-1,2,3,6-tetrahydropyrimidin-1-yl]phenylamino}-6-methoxy-4-(methoxycarbonyl)methoxypyrimidine] | 10 | 10 | 10 | 10 | 9 | 9 | 8 | 9 |  |  |  |  |
| 62.5 | COC(=O)COc1cncnc1Oc1cc(-n2c(=O)cc(C(F)(F)F)n(C)c2=O)c(F)cc1Cl [Compound 3-57, 4-{2-chloro-4-fluoro-5-[3-methyl-2,6-dioxo-4-(trifluoromethyl)-1,2,3,6-tetrahydropyrimidin-1-yl]phenoxy}-5-(methoxycarbonyl)methoxypyrimidine] |  |  |  |  |  |  |  |  |  |  |  |  |
| 52.5 | COC(=O)COc1ncncc1Oc1cc(-n2c(=O)cc(C(F)(F)F)n(C)c2=O)c(F)cc1Cl [Compound 4-7, 5-{2-chloro-4-fluoro-5-[3-methyl-2,6-dioxo-4-(trifluoromethyl)-1,2,3,6-tetrahydropyrimidin-1-yl]phenoxy}-4-(methoxycarbonyl)methoxypyrimidine] |  |  |  |  |  |  |  |  | completely controlled | completely controlled | completely controlled | completely controlled |
| 60.2 | COC(=O)C(C)Oc1ccnc(Sc2cc(-n3c(=O)cc(C(F)(F)F)n(C)c3=O)c(F)cc2Cl)n1 (centres unmarked) [Compound 6-2, methyl 2-([2-{2-chloro-4-fluoro-5-[3-methyl-2,6-dioxo-4-(trifluoromethyl)-1,2,3,6-tetrahydropyrimidin-1-yl]phenylthio}pyrimidin-4-yl]oxy}propionate] |  |  |  |  |  |  |  |  | completely controlled | completely controlled | completely controlled | completely controlled |
|  | COC(=O)COC(=O)COc1ncccc1Oc1cc(-n2c(=O)cc(C(F)(F)F)n(C)c2=O)c(F)cc1Cl [Compound 7-119, 3-{2-chloro-4-fluoro-5-[3-methyl-2,6-dioxo-4-(trifluoromethyl)-1,2,3,6-tetrahydropyrimidin-1-yl]phenoxy}-2-[(methoxycarbonyl)methoxycarbonylmethoxy]pyridine] |  |  |  |  |  |  |  |  | completely controlled | completely controlled | completely controlled | completely controlled |
|  | Cn1c(C(F)(F)F)cc(=O)n(-c2cc(Oc3cccnc3OCC(=O)OC3CCCC3)c(Cl)cc2F)c1=O [Compound 7-125, 3-{2-chloro-4-fluoro-5-[3-methyl-2,6-dioxo-4-(trifluoromethyl)-1,2,3,6-tetrahydropyrimidin-1-yl]phenoxy}-2-(c-pentyloxycarbonyl)methoxypyridine] |  |  |  |  |  |  |  |  | completely controlled | completely controlled | completely controlled | completely controlled |
|  | COC(=O)COc1ncccc1Oc1cc(-n2c(=O)cc(C(F)(F)F)n(C)c2=O)c(F)cc1Br [Compound 9-7, 3-{2-bromo-4-fluoro-5-[3-methyl-2,6-dioxo-4-(trifluoromethyl)-1,2,3,6-tetrahydropyrimidin-1-yl]phenoxy}-2-(methoxycarbonyl)methoxypyridine] |  |  |  |  |  |  |  |  | completely controlled | completely controlled | completely controlled | completely controlled |
| 173.1 | COC(=O)COc1ncccc1Oc1cc(-n2c(=O)cc(C(F)(F)F)n(C)c2=O)c(F)cc1C#N [Compound 9-27, 3-{2-cyano-4-fluoro-5-[3-methyl-2,6-dioxo-4-(trifluoromethyl)-1,2,3,6-tetrahydropyrimidin-1-yl]phenoxy}-2-(methoxycarbonyl)methoxypyridine] |  |  |  |  |  |  |  |  | completely controlled | completely controlled | completely controlled | completely controlled |
|  | COC(=O)COc1ncccc1Oc1cc(-n2c(=O)cc(C(F)(F)F)n(C)c2=O)c(F)cc1[N+](=O)[O-] [Compound 9-45, 3-{4-fluoro-5-[3-methyl-2,6-dioxo-4-(trifluoromethyl)-1,2,3,6-tetrahydropyrimidin-1-yl]-2-nitrophenoxy}-2-(methoxycarbonyl)methoxypyridine] |  |  |  |  |  |  |  |  | completely controlled | completely controlled | completely controlled | completely controlled |
